The source of these data is ChEMBL document CHEMBL5518181, “Studies of antibacterial activity (in vitro and in vivo) and mode of action for des-acyl tridecaptins (DATs)” (Eur J Med Chem, 2024).

The IC50 is the concentration needed to halve the response being measured.

In brackets after ≈: the same amount, converted by molar mass.

One data set deals with Klebsiella pneumoniae. Put plainly: Antibacterial activity against wild-type Klebsiella pneumoniae ATCC 13883 assessed as inhibition of bacterial growth incubated for 18 hrs. To be noted: read-out: MIC100. Type of data set: functional.
In another data set the test system is Escherichia coli. Put plainly: Antibacterial activity against wild-type Escherichia coli ATCC 25922 assessed as inhibition of bacterial growth incubated for 18 hrs. To be noted: read-out: MIC100. Type of data set: functional.
The nature of data set [1]: Hemolytic activity in human red blood cells at 400 ug/ml incubated for 45 mins by spectrophotometric analysis relative to control. Type of data set: toxicity, cell-based, Erythrocyte. To be noted: red blood cells (erythrocytes), at 400 µg/mL, read-out: Activity.
Data set [2] can be described thus: Cytotoxicity against human HepG2 cells incubated for 40 hrs by celltiter-glo luminescent cell viability assay. In kind it is toxicity, cell-based.

Consider `CC[C@H](C)[C@@H](NC(=O)[C@@H](NC(=O)[C@H](CCC(=O)O)NC(=O)[C@H](Cc1ccccc1)NC(=O)[C@@H](CCN)NC(=O)[C@H](CCN)NC(=O)[C@H](CO)NC(=O)[C@@H](Cc1c[nH]c2ccccc12)NC(=O)[C@@H](CC(=O)O)NC(=O)CNC(=O)[C@@H](CCN)NC(=O)[C@H](N)C(C)C)C(C)C)C(=O)N[C@@H](C)C(=O)O`, for which the MIC with Klebsiella pneumoniae and in the data set on Escherichia coli was greater than 64 µg/mL each time. Moreover, the hemolysis at 0.75 h, 400 ug/ml in data set [1] worked out at 0%. Besides, in data set [2], the IC50 at 40 h is greater than 170 µg/mL.
Turning to `CC[C@H](C)[C@@H](NC(=O)[C@@H](NC(=O)[C@H](CCC(=O)O)NC(=O)[C@H](Cc1ccccc1)NC(=O)[C@@H](CCN)NC(=O)[C@H](CCN)NC(=O)[C@H](CO)NC(=O)[C@@H](Cc1c[nH]c2ccccc12)NC(=O)[C@@H](CO)NC(=O)CNC(=O)[C@@H](CCN)NC(=O)[C@@H](C)N)C(C)C)C(=O)N[C@@H](C)C(=O)O`, the MIC in the data set with Klebsiella pneumoniae and with Escherichia coli was greater than 64 µg/mL throughout. Besides, the hemolysis at 0.75 h, 400 ug/ml in data set [1] amounted to 6.4%. This compound also yielded an IC50 at 40 h in data set [2] of 131 µg/mL (≈ 95.9 µM).
Turning to `CC[C@H](C)[C@@H](NC(=O)[C@@H](NC(=O)[C@H](CCC(=O)O)NC(=O)[C@H](Cc1ccccc1)NC(=O)[C@@H](CCN)NC(=O)[C@H](CCN)NC(=O)[C@H](CO)NC(=O)[C@@H](Cc1c[nH]c2ccccc12)NC(=O)[C@@H](CO)NC(=O)CNC(=O)[C@@H](C)NC(=O)[C@H](NC(=O)[C@H](C)N)C(C)C)C(C)C)C(=O)N[C@@H](C)C(=O)O`, the MIC is 64 µg/mL (≈ 44.5 µM) in the data set with Klebsiella pneumoniae and greater than 64 µg/mL in the data set with Escherichia coli. Moreover, in data set [1], the hemolysis at 0.75 h, 400 ug/ml was 0.6%. Besides, the IC50 at 40 h in data set [2] was greater than 170 µg/mL.
In the case of `CC(C)C[C@@H](NC(=O)[C@@H](NC(=O)[C@H](CCC(=O)O)NC(=O)[C@H](Cc1ccccc1)NC(=O)[C@@H](CCN)NC(=O)[C@H](CCN)NC(=O)[C@H](CO)NC(=O)[C@@H](Cc1c[nH]c2ccccc12)NC(=O)[C@@H](CO)NC(=O)CNC(=O)[C@@H](CCN)NC(=O)[C@H](N)C(C)C)C(C)C)C(=O)N[C@@H](C)C(=O)O`, the MIC in the data set with Klebsiella pneumoniae and with Escherichia coli was 64 µg/mL (≈ 45.9 µM) throughout. The hemolysis at 0.75 h, 400 ug/ml in data set [1] was 45.9%. It took 161 µg/mL (≈ 115 µM) to reach half-maximal inhibition in data set [2] (IC50 at 40 h).
With `CC[C@H](C)[C@@H](NC(=O)[C@@H](NC(=O)[C@H](CCC(=O)O)NC(=O)[C@H](Cc1ccccc1)NC(=O)[C@@H](CCN)NC(=O)[C@H](CCN)NC(=O)[C@H](CO)NC(=O)[C@@H](Cc1c[nH]c2ccccc12)NC(=O)[C@@H](CO)NC(=O)CNC(=O)[C@H](N)CCN)C(C)C)C(=O)N[C@@H](C)C(=O)O`, the MIC in the data set with Klebsiella pneumoniae and in the data set with Escherichia coli was greater than 64 µg/mL each time. Moreover, the hemolysis at 0.75 h, 400 ug/ml in data set [1] was 0%. The compound further gave an IC50 at 40 h in data set [2] greater than 170 µg/mL.
In the case of `CC[C@H](C)[C@@H](NC(=O)[C@@H](NC(=O)[C@H](CCC(=O)O)NC(=O)[C@H](Cc1ccccc1)NC(=O)[C@@H](CCN)NC(=O)[C@H](CN)NC(=O)[C@H](CO)NC(=O)[C@@H](Cc1c[nH]c2ccccc12)NC(=O)[C@@H](CO)NC(=O)CNC(=O)[C@@H](CCN)NC(=O)[C@H](N)C(C)C)C(C)C)C(=O)N[C@@H](C)C(=O)O`, the MIC in the data set on Klebsiella pneumoniae worked out at 32 µg/mL (≈ 23.2 µM); in the data set on Escherichia coli, 64 µg/mL (≈ 46.4 µM). Moreover, in data set [1], the hemolysis at 0.75 h, 400 ug/ml was 1.5%. For the same compound, the IC50 at 40 h in data set [2] was greater than 170 µg/mL.
On the same counts, the results for `CC[C@H](C)[C@@H](NC(=O)[C@@H](NC(=O)[C@H](CCC(=O)O)NC(=O)[C@H](Cc1ccccc1)NC(=O)[C@@H](C)NC(=O)[C@H](CCN)NC(=O)[C@H](CO)NC(=O)[C@@H](Cc1c[nH]c2ccccc12)NC(=O)[C@@H](CO)NC(=O)CNC(=O)[C@@H](CCN)NC(=O)[C@H](N)C(C)C)C(C)C)C(=O)N[C@@H](C)C(=O)O` are 64 µg/mL (≈ 46.9 µM), greater than 64 µg/mL, 0% and greater than 170 µg/mL.
The matching figures for `CC[C@H](C)[C@@H](NC(=O)[C@@H](NC(=O)[C@H](CCC(=O)O)NC(=O)[C@H](Cc1ccccc1)NC(=O)[C@@H](CCN)NC(=O)[C@H](CCN)NC(=O)[C@H](CO)NC(=O)[C@@H](Cc1c[nH]c2ccccc12)NC(=O)[C@@H](CO)NC(=O)CNC(=O)[C@@H](CCN)NC(=O)[C@H](N)C(C)C)C(C)C)C(=O)N[C@H](C(=O)O)C(C)(C)C`: 32 µg/mL (≈ 22.3 µM), 32 µg/mL (≈ 22.3 µM), 12.1% and 43 µg/mL (≈ 29.9 µM).
As to `CC[C@H](C)[C@@H](NC(=O)[C@H](C)NC(=O)[C@H](CCC(=O)O)NC(=O)[C@H](Cc1ccccc1)NC(=O)[C@@H](CCN)NC(=O)[C@H](CCN)NC(=O)[C@H](CO)NC(=O)[C@@H](Cc1c[nH]c2ccccc12)NC(=O)[C@@H](CO)NC(=O)CNC(=O)[C@@H](CCN)NC(=O)[C@H](N)C(C)C)C(=O)N[C@@H](C)C(=O)O`, the MIC with Klebsiella pneumoniae is 64 µg/mL (≈ 46.8 µM); with Escherichia coli, greater than 64 µg/mL. Also, the hemolysis at 0.75 h, 400 ug/ml in data set [1] is 0.8%. This compound yielded an IC50 at 40 h in data set [2] of 58 µg/mL (≈ 42.4 µM).
On the same counts, the results for `CC[C@H](C)[C@@H](NC(=O)[C@@H](NC(=O)[C@H](CCC(=O)O)NC(=O)[C@H](Cc1ccccc1)NC(=O)[C@@H](CCN)NC(=O)[C@H](CCN)NC(=O)[C@H](CO)NC(=O)[C@@H](C)NC(=O)[C@@H](CO)NC(=O)CNC(=O)[C@@H](CCN)NC(=O)[C@H](NC(=O)[C@H](C)N)C(C)C)C(C)C)C(=O)N[C@@H](C)C(=O)O` are greater than 64 µg/mL, greater than 64 µg/mL, 0% and greater than 170 µg/mL.
On the same counts, the results for `CC[C@H](C)[C@@H](NC(=O)[C@@H](NC(=O)[C@H](CCC(=O)O)NC(=O)[C@H](Cc1ccccc1)NC(=O)[C@@H](CCN)NC(=O)[C@H](CN)NC(=O)[C@H](CO)NC(=O)[C@@H](Cc1c[nH]c2ccccc12)NC(=O)[C@@H](CO)NC(=O)CNC(=O)[C@@H](CCN)NC(=O)[C@H](NC(=O)[C@H](C)N)C(C)C)C(C)C)C(=O)N[C@@H](C)C(=O)O` are greater than 64 µg/mL, greater than 64 µg/mL, 0% and greater than 170 µg/mL.
The matching figures for `CC[C@H](C)[C@@H](NC(=O)[C@@H](NC(=O)[C@H](CCC(=O)O)NC(=O)[C@H](Cc1ccccc1)NC(=O)[C@@H](CCN)NC(=O)[C@H](CCN)NC(=O)[C@H](CO)NC(=O)[C@@H](Cc1c[nH]c2ccccc12)NC(=O)[C@@H](CO)NC(=O)CNC(=O)[C@@H](CCN)NC(=O)[C@H](NC(=O)CN)C(C)C)C(C)C)C(=O)N[C@@H](C)C(=O)O`: 32 µg/mL (≈ 22 µM), 32 µg/mL (≈ 22 µM), 0% and greater than 70 µg/mL.
On to `CC[C@H](C)[C@@H](NC(=O)[C@@H](NC(=O)[C@H](CCC(=O)O)NC(=O)[C@H](Cc1ccccc1)NC(=O)[C@@H](CCN)NC(=O)[C@H](CCN)NC(=O)[C@H](CO)NC(=O)[C@@H](Cc1c[nH]c2ccccc12)NC(=O)[C@@H](CO)NC(=O)[C@H](C)NC(=O)[C@@H](CCN)NC(=O)[C@H](N)C(C)C)C(C)C)C(=O)N[C@@H](C)C(=O)O`, for which the MIC in the data set with Klebsiella pneumoniae was 64 µg/mL (≈ 45.4 µM); in the data set with Escherichia coli it was greater than 64 µg/mL. In data set [1], the hemolysis at 0.75 h, 400 ug/ml was found to be 0%. For the same compound, the IC50 at 40 h in data set [2] is greater than 170 µg/mL.
On the same counts, the results for `CC[C@H](C)[C@@H](NC(=O)[C@@H](NC(=O)[C@H](CCC(=O)O)NC(=O)[C@H](Cc1ccccc1)NC(=O)[C@@H](CCN)NC(=O)[C@H](CCN)NC(=O)[C@H](CO)NC(=O)[C@@H](Cc1c[nH]c2ccccc12)NC(=O)[C@@H](CO)NC(=O)CNC(=O)[C@@H](CCN)NC(=O)[C@H](NC(=O)[C@@H](N)CO)C(C)C)C(C)C)C(=O)N[C@@H](C)C(=O)O` are 16 µg/mL (≈ 10.8 µM), 32 µg/mL (≈ 21.6 µM), 4.2% and greater than 170 µg/mL.
On the same counts, the results for `CC[C@H](C)[C@@H](NC(=O)[C@H](C)NC(=O)[C@H](CCC(=O)O)NC(=O)[C@H](Cc1ccccc1)NC(=O)[C@@H](CCN)NC(=O)[C@H](CCN)NC(=O)[C@H](CO)NC(=O)[C@@H](Cc1c[nH]c2ccccc12)NC(=O)[C@@H](CO)NC(=O)CNC(=O)[C@@H](CCN)NC(=O)[C@H](NC(=O)[C@H](C)N)C(C)C)C(=O)N[C@@H](C)C(=O)O` are 32 µg/mL (≈ 22.3 µM), 32 µg/mL (≈ 22.3 µM), 5.5% and 51 µg/mL (≈ 35.5 µM).
In the case of `CC(C)[C@H](NC(=O)[C@H](CCC(=O)O)NC(=O)[C@H](Cc1ccccc1)NC(=O)[C@@H](CCN)NC(=O)[C@H](CCN)NC(=O)[C@H](CO)NC(=O)[C@@H](Cc1c[nH]c2ccccc12)NC(=O)[C@@H](CO)NC(=O)CNC(=O)[C@@H](CCN)NC(=O)[C@H](NC(=O)[C@H](C)N)C(C)C)C(=O)N[C@@H](C(=O)N[C@@H](C)C(=O)O)C(C)(C)C`, the MIC in the data set with Klebsiella pneumoniae was 1 µg/mL (≈ 0.682 µM); in the data set on Escherichia coli it was 2 µg/mL (≈ 1.36 µM). Further, the hemolysis at 0.75 h, 400 ug/ml in data set [1] worked out at 71.2%. In data set [2], this compound showed an IC50 at 40 h of 23 µg/mL (≈ 15.7 µM).
The matching figures for `CC[C@H](C)[C@@H](NC(=O)[C@@H](NC(=O)[C@H](CCC(=O)O)NC(=O)[C@H](Cc1cccc2ccccc12)NC(=O)[C@@H](CCN)NC(=O)[C@H](CCN)NC(=O)[C@H](CO)NC(=O)[C@@H](Cc1c[nH]c2ccccc12)NC(=O)[C@@H](CO)NC(=O)CNC(=O)[C@@H](CCN)NC(=O)[C@H](NC(=O)[C@H](C)N)C(C)C)C(C)C)C(=O)N[C@@H](C)C(=O)O`: 1 µg/mL (≈ 0.66 µM), 2 µg/mL (≈ 1.32 µM), 52.9% and 83 µg/mL (≈ 54.8 µM).
On the same counts, the results for `CC[C@H](C)[C@@H](NC(=O)[C@@H](NC(=O)[C@H](CCC(=O)O)NC(=O)[C@H](Cc1ccccc1)NC(=O)[C@@H](CCN)NC(=O)[C@H](CCN)NC(=O)[C@H](CO)NC(=O)[C@@H](C)NC(=O)[C@@H](CO)NC(=O)CNC(=O)[C@@H](CCN)NC(=O)[C@H](N)C(C)C)C(C)C)C(=O)N[C@@H](C)C(=O)O` are greater than 64 µg/mL, greater than 64 µg/mL, 0% and greater than 170 µg/mL.
